According to US20240398786A1, “7-ETHYL-10-HYDROXY-CAMPTOTHECIN (SN-38) ALBUMIN CONJUGATES FOR TREATMENT OF CANCERS” (Ohio State Innovation Foundation, priority 2021, published 2024):

Legend:
[1] = system: H23-shCtrl/shCav-1 tumors; assay: H23-shCtrl/shCav-1 flank xenografts in athymic nude mice; assay type: in vivo; settings: SSH20 10 mg/kg or molar equivalent of irinotecan, intravenous retro-orbital
Procedure: (§1) Briefly, 180 μL of SSH20 was added to 1620 μL of pooled human serum off the clot (Innovative Research, Novi, MI) to form a 10% SSH20 solution, which was incubated at 37° C. Aliquots were collected at preset time points, a fixed amount of internal standard (10-hydroxycamptothecin, 10-HCPT) was added to each sample aliquot and the solutions were mixed thoroughly on vortex prior to protein precipitation by acetonitrile. Protein precipitates were pulled down by 17,000×g centrifugation for 5 minutes. The dissociated SN-38 in the supernatant was analyzed by reverse-phase HPLC, using parameters described above, detected by PDA at 368 nm. SN-38/internal standard peak ratios were correlated with an SN-38 standard curve (using the same preparation method) to obtain the concentrations of released SN-38. The plot of the kinetics of SN-38 release was generated by Prism, and the half-life was calculated by one-phase exponential association. […] To obtain a tumor growth curve, perpendicular diameter measurements of each tumor were measured every 1-5 days from the first day of injection with digital calipers, and volumes were calculated using the formula (L×W×W)/2. Weight and clinical signs of toxicity were monitored several times per week.

[2] = system: MP2-shCtrl/shCav-1 tumors; assay: MP2-shCtrl/shCav-1 flank xenografts in athymic nude mice; assay type: in vivo; settings: SSH20 10 mg/kg or molar equivalent of irinotecan, intravenous retro-orbital
Procedure: as §1

[3] = pharmaceutical solvents; cited from earlier work
H23 shCtrl/shCav-1 cells = assay: Uptake by direct fluorescence in H23 shCtrl vs shCav-1 cells; assay type: cell-based; settings: 250 nM pulsed 2 h
Procedure: (§2) Cells were pulsed either 1 hour with 0.1% FITC-HAS or 2 hours with 250 nM SN/38/SSH20 prior to fixation. When applicable, in order to remove membrane-bound albumin, two acid/salt washes were performed with 0.1M glycine and 0.1M NaCl, pH 3.02 for 2 minutes each, followed by two washes with phosphate buffer saline (PBS). Cells were then fixed with 2% paraformaldehyde for 15 minutes at room temperature and washed 1×PBS 2 times for 5 minutes each. Cells were incubated with 0.1% Triton-x-100 for 10 min on ice to permeabilize, then washed twice with 1×PBS prior to blocking with 3% bovine serum albumin in 1×PBS overnight at 4° C. In a humidified chamber, primary antibodies (1:50) in blocking buffer were added and incubated for 1 hour at 4° C., followed by three 10 minute rinses with blocking buffer. Secondary antibody (conjugated to Alexa Fluor 488, 1:1000) was added along with DAPI for 1 hour at room temperature. Cells were then rinsed, and coverslips were mounted onto slides and then sealed. Cells were then imaged with a confocal microscope with locked settings across the control and respective experimental conditions. For auto-fluorescence experiments with SN-30 and SSH20, images were taken at an emission wavelength of 543 nm. ImageJ was used to measure the fluorescence intensity of individual cells.

MP2 cell line = assay: Inhibitory activity of SN-38/HSA conjugates against the MP2 cell line; assay type: cell-based
Procedure: AlamarBlue proliferation assay was performed according to the manufacturer's instructions (BioRad Antibodies, Oxford, UK). Briefly, cells were seeded in 96-well plates in 4 replicates at a density of 100-300 cells per well in 100 μL medium and treated as described. Seventy-two hours after plating, alamarBlue reagent was added and incubated at 37° C. for 4-8 hours, and absorbance was measured at 570 and 600 nm.

[4] = system: MIA-PaCa-2 (MP2) shCtrl/shCav-1 cells; assay: Uptake by direct fluorescence in MP2 shCtrl vs shCav-1 cells; assay type: cell-based; settings: 250 nM pulsed 2 h
Procedure: as §2

| Compound | tumor growth rate [1] | tumor growth rate [2] | solubility, in words [3] | difference in SN-38 autofluorescent signal between shCtrl and shCav-1 cells (H23 shCtrl/shCav-1 cells) | IC50 (MP2 cell line) [nM] | difference in SN-38 autofluorescent signal between shCtrl and shCav-1 cells [4] |
| --- | --- | --- | --- | --- | --- | --- |
| CCc1c2c(nc3ccc(OC(=O)N4CCC(N5CCCCC5)CC4)cc13)-c1cc3c(c(=O)n1C2)COC(=O)[C@]3(O)CC [irinotecan, Irinotecan] | not reduced | not reduced | – | – | – | – |
| CCc1c2c(nc3ccc(O)cc13)-c1cc3c(c(=O)n1C2)COC(=O)[C@]3(O)CC [SN-38, 7-ethyl-10-hydroxy-camptothecin] | – | – | virtually insoluble in any pharmaceutical solvent | no discernable difference | 495 | no discernable difference |
